# Test results from PubChem BioAssay (NCI).
#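 Exposure lasted 48 hours, with cells grown in 96-well plates and compounds tested at five concentrations. The concentration for 50% growth inhibition is given as GI50. TGI marks complete inhibition of growth.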
# Columns and labels:
# Assay in all cases: inhibition of tumour cell growth, NCI panel, 48 h
# SK-OV-3 ovarian = tested on: SK-OV-3 ovarian
# CCRF-CEM leukemia = tested on: CCRF-CEM leukemia
# M14 melanoma = tested on: M14 melanoma
# HCC-2998 colon = tested on: HCC-2998 colon
# MDA-MB-231 breast = tested on: MDA-MB-231 breast
# COLO 205 colon = tested on: COLO 205 colon
# OVCAR-8 ovarian = tested on: OVCAR-8 ovarian
# SR leukemia = tested on: SR leukemia
# SK-MEL-5 melanoma = tested on: SK-MEL-5 melanoma
# U251 CNS = tested on: U251 CNS
# K-562 leukemia = tested on: K-562 leukemia
# OVCAR-4 ovarian = tested on: OVCAR-4 ovarian
# RXF 393 renal = tested on: RXF 393 renal
# OVCAR-3 ovarian = tested on: OVCAR-3 ovarian
# A498 renal = tested on: A498 renal
# SF-268 CNS = tested on: SF-268 CNS
# MOLT-4 leukemia = tested on: MOLT-4 leukemia
# MALME-3M melanoma = tested on: MALME-3M melanoma
# SF-295 CNS = tested on: SF-295 CNS
# IGROV1 ovarian = tested on: IGROV1 ovarian
# SW-620 colon = tested on: SW-620 colon
# 786-0 renal = tested on: 786-0 renal
# KM12 colon = tested on: KM12 colon
# LOX IMVI melanoma = tested on: LOX IMVI melanoma
# SK-MEL-28 melanoma = tested on: SK-MEL-28 melanoma
# NCI-H23 lung = tested on: NCI-H23 lung
# UACC-62 melanoma = tested on: UACC-62 melanoma
# NCI-H460 lung = tested on: NCI-H460 lung
# RPMI-8226 leukemia = tested on: RPMI-8226 leukemia
# HCT-15 colon = tested on: HCT-15 colon
# HT29 colon = tested on: HT29 colon
# ACHN renal = tested on: ACHN renal
# UO-31 renal = tested on: UO-31 renal
# HOP-92 NSCLC = tested on: HOP-92 NSCLC
# SNB-19 CNS = tested on: SNB-19 CNS
# NCI-H522 lung = tested on: NCI-H522 lung
# MDA-MB-435 = tested on: MDA-MB-435
# HL-60(TB) leukemia = tested on: HL-60(TB) leukemia
# T-47D breast = tested on: T-47D breast
# OVCAR-5 ovarian = tested on: OVCAR-5 ovarian
# EKVX NSCLC = tested on: EKVX NSCLC
# SNB-75 CNS = tested on: SNB-75 CNS
# NCI-H226 lung = tested on: NCI-H226 lung
# UACC-257 melanoma = tested on: UACC-257 melanoma
# NCI/ADR-RES ovarian = tested on: NCI/ADR-RES ovarian
# SK-MEL-2 melanoma = tested on: SK-MEL-2 melanoma
# PC-3 prostate = tested on: PC-3 prostate
# HS 578T breast = tested on: HS 578T breast
# MDA-MB-468 breast = tested on: MDA-MB-468 breast
# MCF7 breast = tested on: MCF7 breast
# TK-10 renal = tested on: TK-10 renal
# A549 NSCLC = tested on: A549 NSCLC
# SF-539 CNS = tested on: SF-539 CNS
# SN12C renal = tested on: SN12C renal
# CAKI-1 renal = tested on: CAKI-1 renal
# HCT-116 colon = tested on: HCT-116 colon
# BT-549 breast = tested on: BT-549 breast
# HOP-62 NSCLC = tested on: HOP-62 NSCLC
# DU-145 prostate = tested on: DU-145 prostate
smiles,measurement,setting,value
CC/C(=C(\c1ccc(O)cc1)c1ccc(OCCN(C)C(=O)COCCNC(=O)Cc2ccc3c(c2)CN([C@@H]2CCC(=O)NC2=O)C3=O)cc1)c1ccccc1,GI50,SK-OV-3 ovarian,10.7 µM
same,TGI,SK-OV-3 ovarian,> 100 µM
same,GI50,CCRF-CEM leukemia,0.995 µM
same,GI50,M14 melanoma,30.8 µM
same,TGI,M14 melanoma,> 100 µM
same,GI50,HCC-2998 colon,1.7 µM
same,TGI,HCC-2998 colon,> 82.3 µM
same,GI50,MDA-MB-231 breast,0.142 µM
same,TGI,MDA-MB-231 breast,0.801 µM
same,GI50,COLO 205 colon,2.11 µM
same,TGI,COLO 205 colon,33.3 µM
same,GI50,OVCAR-8 ovarian,1.56 µM
same,TGI,OVCAR-8 ovarian,33.4 µM
same,GI50,SR leukemia,13.5 µM
same,TGI,SR leukemia,> 74 µM
same,GI50,SK-MEL-5 melanoma,6.78 µM
same,TGI,SK-MEL-5 melanoma,73.9 µM
same,GI50,U251 CNS,> 74.9 µM
same,TGI,U251 CNS,> 100 µM
same,GI50,K-562 leukemia,16 µM
same,TGI,K-562 leukemia,> 100 µM
same,GI50,OVCAR-4 ovarian,11.2 µM
same,TGI,OVCAR-4 ovarian,> 100 µM
same,GI50,RXF 393 renal,4.19 µM
same,TGI,RXF 393 renal,72.8 µM
same,GI50,OVCAR-3 ovarian,15.2 µM
same,TGI,OVCAR-3 ovarian,> 100 µM
same,GI50,A498 renal,38.6 µM
same,TGI,A498 renal,> 100 µM
same,GI50,SF-268 CNS,5.38 µM
same,TGI,SF-268 CNS,> 100 µM
same,GI50,MOLT-4 leukemia,0.0517 µM
same,TGI,MOLT-4 leukemia,1.1 µM
same,GI50,MALME-3M melanoma,0.306 µM
same,TGI,MALME-3M melanoma,2.49 µM
same,GI50,SF-295 CNS,> 100 µM
same,TGI,SF-295 CNS,> 100 µM
same,GI50,IGROV1 ovarian,0.433 µM
same,TGI,IGROV1 ovarian,> 100 µM
same,GI50,SW-620 colon,1.9 µM
same,TGI,SW-620 colon,> 100 µM
same,GI50,786-0 renal,51.7 µM
same,TGI,786-0 renal,> 100 µM
same,GI50,KM12 colon,8.5 µM
same,TGI,KM12 colon,> 100 µM
same,GI50,LOX IMVI melanoma,> 84.5 µM
same,TGI,LOX IMVI melanoma,> 100 µM
same,GI50,SK-MEL-28 melanoma,21.6 µM
same,TGI,SK-MEL-28 melanoma,> 100 µM
same,GI50,NCI-H23 lung,> 93.6 µM
same,TGI,NCI-H23 lung,> 100 µM
same,GI50,UACC-62 melanoma,54.2 µM
same,TGI,UACC-62 melanoma,> 100 µM
same,GI50,NCI-H460 lung,> 100 µM
same,TGI,NCI-H460 lung,> 100 µM
same,GI50,RPMI-8226 leukemia,5.07 µM
same,TGI,RPMI-8226 leukemia,> 100 µM
same,GI50,HCT-15 colon,> 88.1 µM
same,TGI,HCT-15 colon,> 100 µM
same,GI50,HT29 colon,> 57.6 µM
same,TGI,HT29 colon,> 100 µM
same,GI50,ACHN renal,> 100 µM
same,TGI,ACHN renal,> 100 µM
same,GI50,UO-31 renal,> 100 µM
same,TGI,UO-31 renal,> 100 µM
same,GI50,HOP-92 NSCLC,0.177 µM
same,TGI,HOP-92 NSCLC,3.05 µM
same,GI50,SNB-19 CNS,1.83 µM
same,TGI,SNB-19 CNS,> 100 µM
same,GI50,NCI-H522 lung,> 21.6 µM
same,TGI,NCI-H522 lung,> 100 µM
same,GI50,MDA-MB-435,17.8 µM
same,TGI,MDA-MB-435,> 100 µM
same,GI50,HL-60(TB) leukemia,0.0309 µM
same,TGI,HL-60(TB) leukemia,0.659 µM
same,GI50,T-47D breast,0.0259 µM
same,TGI,T-47D breast,4.61 µM
same,GI50,OVCAR-5 ovarian,> 57.6 µM
same,TGI,OVCAR-5 ovarian,> 100 µM
same,GI50,EKVX NSCLC,> 47 µM
same,TGI,EKVX NSCLC,> 100 µM
same,GI50,SNB-75 CNS,0.316 µM
same,TGI,SNB-75 CNS,> 94.8 µM
same,GI50,NCI-H226 lung,2.35 µM
same,TGI,NCI-H226 lung,> 26.7 µM
same,GI50,UACC-257 melanoma,> 100 µM
same,TGI,UACC-257 melanoma,> 100 µM
same,GI50,NCI/ADR-RES ovarian,> 100 µM
same,TGI,NCI/ADR-RES ovarian,> 100 µM
same,GI50,SK-MEL-2 melanoma,6.14 µM
same,TGI,SK-MEL-2 melanoma,> 91.8 µM
same,GI50,PC-3 prostate,0.703 µM
same,TGI,PC-3 prostate,> 100 µM
same,GI50,HS 578T breast,0.672 µM
same,TGI,HS 578T breast,11.8 µM
same,GI50,MDA-MB-468 breast,0.0374 µM
same,TGI,MDA-MB-468 breast,0.266 µM
same,GI50,MCF7 breast,0.104 µM
same,TGI,MCF7 breast,> 100 µM
same,GI50,TK-10 renal,> 100 µM
same,TGI,TK-10 renal,> 100 µM
same,GI50,A549 NSCLC,46.2 µM
same,TGI,A549 NSCLC,> 100 µM
same,GI50,SF-539 CNS,> 62.6 µM
same,TGI,SF-539 CNS,> 100 µM
same,GI50,SN12C renal,2.27 µM
same,TGI,SN12C renal,> 93 µM
same,GI50,CAKI-1 renal,55.1 µM
same,TGI,CAKI-1 renal,> 100 µM
same,GI50,HCT-116 colon,> 85.7 µM
same,TGI,HCT-116 colon,> 100 µM
same,GI50,BT-549 breast,0.15 µM
same,TGI,BT-549 breast,0.743 µM
same,GI50,HOP-62 NSCLC,2.28 µM
same,TGI,HOP-62 NSCLC,19.1 µM
same,GI50,DU-145 prostate,> 100 µM
same,TGI,DU-145 prostate,> 100 µM
